Experimental data published in patent US8450270B2 (Indiana University Research and Technology Corporation, priority 2008, dated 2013).
Square brackets hold non-standard residues; d marks the D form. Peptide text beside a SMILES is read from it. Dab = NCC[C@H](N)C(=O)O; Aib = CC(C)(N)C(=O)O

Target: Glucagon Receptor (Homo sapiens, UniProt P47871)
Assay: Functional assay-cAMP synthesis (luciferase reporter, HEK293), glucagon receptor
Details: for % activity*: glucagon receptor
[1] = Table 8, wildtype glucagon = 100

Chain of Glucagon Receptor (P47871 26-477): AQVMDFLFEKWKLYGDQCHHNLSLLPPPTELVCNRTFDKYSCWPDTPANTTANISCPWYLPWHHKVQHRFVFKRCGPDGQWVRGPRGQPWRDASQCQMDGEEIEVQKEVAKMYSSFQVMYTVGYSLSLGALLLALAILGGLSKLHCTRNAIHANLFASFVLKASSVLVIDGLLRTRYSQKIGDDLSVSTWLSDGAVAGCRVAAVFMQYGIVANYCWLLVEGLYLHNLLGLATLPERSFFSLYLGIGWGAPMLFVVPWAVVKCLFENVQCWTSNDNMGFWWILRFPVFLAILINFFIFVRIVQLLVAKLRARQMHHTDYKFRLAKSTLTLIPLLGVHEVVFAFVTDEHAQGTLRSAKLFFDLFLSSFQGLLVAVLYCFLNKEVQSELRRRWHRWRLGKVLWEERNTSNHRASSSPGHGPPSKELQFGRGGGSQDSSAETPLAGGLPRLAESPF

% activity* (Table 7) [%] | SMILES | other results
 | CCCCCCCCCCCCCCCC(=O)NCCCCCC(=O)NCCCC[C@H](NC(=O)[C@H](CC(=O)O)NC(=O)[C@H](CO)NC(=O)[C@@H](NC(=O)[C@H](Cc1ccccc1)NC(=O)[C@@H](NC(=O)CNC(=O)[C@H](CCC(N)=O)NC(=O)C(C)(C)NC(=O)[C@@H](N)Cc1c[nH]cn1)[C@@H](C)O)[C@@H](C)O)C(=O)N[C@@H](CO)C(=O)N[C@@H](CCCCN)C(=O)N[C@@H](Cc1ccc(O)cc1)C(=O)N[C@@H](CC(C)C)C(=O)N[C@@H](CC(=O)O)C(=O)NC(C)(C)C(=O)N[C@@H](CCCNC(=N)N)C(=O)N[C@@H](CCCNC(=N)N)C(=O)N[C@@H](C)C(=O)N[C@@H](CCC(N)=O)C(=O)N[C@@H](CC(=O)O)C(=O)N[C@@H](Cc1ccccc1)C(=O)N[C@H](C(=O)N[C@@H](CCC(N)=O)C(=O)N[C@@H](Cc1c[nH]c2ccccc12)C(=O)N[C@@H](CC(C)C)C(=O)N[C@@H](CCSC)C(=O)N[C@@H](CC(N)=O)C(=O)N[C@H](C(N)=O)[C@@H](C)O)C(C)C [Peptide 85, HXQGTFTSDKSKYLDXRRAQDFVQWLMNT-NH2] | EC50 (EC50 at Glucagon Receptor (nM), Table 10): 0.01 nM
 | CC(=O)NCC[C@H](NC(=O)[C@H](CO)NC(=O)[C@@H](N)Cc1c[nH]cn1)C(=O)NCC(=O)N[C@H](C(=O)N[C@@H](Cc1ccccc1)C(=O)N[C@H](C(=O)N[C@@H](CO)C(=O)N[C@@H](CC(=O)O)C(=O)N[C@@H](Cc1ccc(O)cc1)C(=O)N[C@@H](CO)C(=O)N[C@@H](CCCCN)C(=O)N[C@@H](Cc1ccc(O)cc1)C(=O)N[C@@H](CC(C)C)C(=O)N[C@@H](CC(=O)O)C(=O)NC(C)(C)C(=O)N[C@@H](CCCNC(=N)N)C(=O)N[C@@H](CCCNC(=N)N)C(=O)N[C@@H](C)C(=O)N[C@@H](C)C(=O)N[C@@H](CC(=O)O)C(=O)N[C@@H](Cc1ccccc1)C(=O)N[C@H](C(=O)N[C@@H](C)C(=O)N[C@@H](Cc1c[nH]c2ccccc12)C(=O)N[C@@H](CC(C)C)C(=O)N[C@@H](CC(C)C)C(=O)N[C@@H](CC(=O)O)C(=O)N[C@H](C(=O)NCC(=O)N1CCC[C@H]1C(=O)N[C@@H](CO)C(=O)N[C@@H](CO)C(=O)NCC(=O)N[C@@H](C)C(=O)N1CCC[C@H]1C(=O)N1CCC[C@H]1C(=O)N1CCC[C@H]1C(=O)N[C@@H](CO)C(N)=O)[C@@H](C)O)C(C)C)[C@@H](C)O)[C@@H](C)O [SEQ ID NO: 72] (H-HS[Dab](Ac)GTFTSDYSKYLD[Aib]RRAADFVAWLLDTGPSSGAPPPS-NH2; N-terminus assumed) | % activity* [1]: 113%
55 | CNC(=O)CC[C@H](NC(=O)[C@H](CO)NC(=O)[C@@H](N)Cc1c[nH]cn1)C(=O)NCC(=O)N[C@H](C(=O)N[C@@H](Cc1ccccc1)C(=O)N[C@H](C(=O)N[C@@H](CO)C(=O)N[C@@H](CC(=O)O)C(=O)N[C@@H](Cc1ccc(O)cc1)C(=O)N[C@@H](CO)C(=O)N[C@@H](CCCCN)C(=O)N[C@@H](Cc1ccc(O)cc1)C(=O)N[C@@H](CC(C)C)C(=O)N[C@@H](CC(=O)O)C(=O)NC(C)(C)C(=O)N[C@@H](CCCNC(=N)N)C(=O)N[C@@H](CCCNC(=N)N)C(=O)N[C@@H](C)C(=O)N[C@@H](C)C(=O)N[C@@H](CC(=O)O)C(=O)N[C@@H](Cc1ccccc1)C(=O)N[C@H](C(=O)N[C@@H](C)C(=O)N[C@@H](Cc1c[nH]c2ccccc12)C(=O)N[C@@H](CC(C)C)C(=O)N[C@@H](CCSC)C(=O)N[C@@H](CC(=O)O)C(=O)N[C@@H](CCC(=O)O)C(=O)O)C(C)C)[C@@H](C)O)[C@@H](C)O [SEQ ID NO: 70] | 
13 | CCCC[C@H](NC(=O)[C@H](CC(C)C)NC(=O)[C@H](Cc1c[nH]c2ccccc12)NC(=O)[C@H](C)NC(=O)[C@@H](NC(=O)[C@H](Cc1ccccc1)NC(=O)[C@H](CCC(=O)O)NC(=O)[C@H](C)NC(=O)[C@H](C)NC(=O)[C@H](CCCNC(=N)N)NC(=O)[C@H](CCCNC(=N)N)NC(=O)[C@@H](NC(=O)[C@H](CC(=O)O)NC(=O)[C@H](CC(C)C)NC(=O)[C@H](Cc1ccc(O)cc1)NC(=O)[C@H](CCCCN)NC(=O)[C@H](CO)NC(=O)[C@H](Cc1ccc(O)cc1)NC(=O)[C@H](CC(=O)O)NC(=O)[C@H](CO)NC(=O)[C@@H](NC(=O)[C@H](Cc1ccccc1)NC(=O)[C@@H](NC(=O)CNC(=O)[C@H](CNC(N)=O)NC(=O)[C@H](CO)NC(=O)[C@@H](N)Cc1c[nH]cn1)[C@@H](C)O)[C@@H](C)O)[C@@H](C)O)C(C)C)C(=O)N[C@@H](CC(=O)O)C(=O)N[C@@H](CCC(=O)O)C(=O)O [SEQ ID NO: 64] | EC50 (EC50 at Glucagon Receptor (nM), Table 7): 0.48 nM
 | CSCC[C@H](NC(=O)[C@H](CC(C)C)NC(=O)[C@H](Cc1c[nH]c2ccccc12)NC(=O)[C@H](CCC(N)=O)NC(=O)[C@@H](NC(=O)[C@H](Cc1ccccc1)NC(=O)[C@H](CC(=O)O)NC(=O)[C@H](CCC(N)=O)NC(=O)[C@H](C)NC(=O)[C@H](CCCNC(=N)N)NC(=O)[C@H](CCCNC(=N)N)NC(=O)C(C)(C)NC(=O)[C@H](CC(=O)O)NC(=O)[C@H](CC(C)C)NC(=O)[C@H](Cc1ccc(O)cc1)NC(=O)[C@H](CCCCN)NC(=O)[C@H](CO)NC(=O)[C@H](Cc1ccc(O)cc1)NC(=O)[C@H](CC(=O)O)NC(=O)[C@H](CO)NC(=O)[C@@H](NC(=O)[C@H](Cc1ccccc1)NC(=O)[C@@H](NC(=O)CNC(=O)[C@H](CCC(N)=O)NC(=O)[C@H](CO)NC(=O)[C@@H](N)Cc1c[nH]cn1)[C@@H](C)O)[C@@H](C)O)C(C)C)C(=O)N[C@@H](CC(=O)O)C(=O)N[C@@H](CCC(=O)O)C(=O)O [AIB16/D28/E29 Glucagon] (H-HSQGTFTSDYSKYLD[Aib]RRAQDFVQWLMDE-OH; N-terminus and C-terminus assumed) | EC50 (EC50 at the glucagon receptor, Example 20): 0.08 nM
15 | CSCC[C@H](NC(=O)[C@H](CC(C)C)NC(=O)[C@H](Cc1c[nH]c2ccccc12)NC(=O)[C@H](C)NC(=O)[C@@H](NC(=O)[C@H](Cc1ccccc1)NC(=O)[C@H](CC(=O)O)NC(=O)[C@H](C)NC(=O)[C@H](C)NC(=O)[C@H](CCCNC(=N)N)NC(=O)[C@H](CCCNC(=N)N)NC(=O)C(C)(C)NC(=O)[C@H](CC(=O)O)NC(=O)[C@H](CC(C)C)NC(=O)[C@H](Cc1ccc(O)cc1)NC(=O)[C@H](CCCCN)NC(=O)[C@H](CO)NC(=O)[C@H](Cc1ccc(O)cc1)NC(=O)[C@H](CC(=O)O)NC(=O)[C@H](CO)NC(=O)[C@@H](NC(=O)[C@H](Cc1ccccc1)NC(=O)[C@@H](NC(=O)CNC(=O)[C@H](CCC(N)=O)NC(=O)[C@H](CO)NC(=O)[C@@H](N)Cc1c[nH]cn1)[C@@H](C)O)[C@@H](C)O)C(C)C)C(=O)N[C@@H](CC(=O)O)C(=O)N[C@@H](CCC(=O)O)C(=O)O [SEQ ID NO: 68] | 
 | CC(=O)NCC[C@H](NC(=O)[C@H](CO)NC(=O)[C@@H](N)Cc1c[nH]cn1)C(=O)NCC(=O)N[C@H](C(=O)N[C@@H](Cc1ccccc1)C(=O)N[C@H](C(=O)N[C@@H](CO)C(=O)N[C@@H](CC(=O)O)C(=O)N[C@@H](Cc1ccc(O)cc1)C(=O)N[C@@H](CO)C(=O)N[C@@H](CCCCN)C(=O)N[C@@H](Cc1ccc(O)cc1)C(=O)N[C@@H](CC(C)C)C(=O)N[C@@H](CC(=O)O)C(=O)NC(C)(C)C(=O)N[C@@H](CCCNC(=N)N)C(=O)N[C@@H](CCCNC(=N)N)C(=O)N[C@@H](C)C(=O)N[C@H](C(=O)N[C@@H](CC(=O)O)C(=O)N[C@@H](Cc1ccccc1)C(=O)N[C@H](C(=O)N[C@H](C(=O)N[C@@H](Cc1c[nH]c2ccccc12)C(=O)N[C@@H](CC(C)C)C(=O)N[C@@H](CC(C)C)C(=O)N[C@@H](CC(=O)O)C(=O)N[C@@H](CCC(=O)O)C(=O)O)[C@@H](C)O)C(C)C)[C@@H](C)O)[C@@H](C)O)[C@@H](C)O [SEQ ID NO: 74] (H-HS[Dab](Ac)GTFTSDYSKYLD[Aib]RRATDFVTWLLDE-OH; N-terminus and C-terminus assumed) | % activity* [1]: 46%
7 | CCCC[C@H](NC(=O)[C@H](CC(C)C)NC(=O)[C@H](Cc1c[nH]c2ccccc12)NC(=O)[C@H](C)NC(=O)[C@@H](NC(=O)[C@H](Cc1ccccc1)NC(=O)[C@H](CCC(=O)O)NC(=O)[C@H](C)NC(=O)[C@H](C)NC(=O)[C@H](CCCNC(=N)N)NC(=O)[C@H](CCCNC(=N)N)NC(=O)[C@@H](NC(=O)[C@H](CC(=O)O)NC(=O)[C@H](CC(C)C)NC(=O)[C@H](Cc1ccc(O)cc1)NC(=O)[C@H](CCCCN)NC(=O)[C@H](CO)NC(=O)[C@H](Cc1ccc(O)cc1)NC(=O)[C@H](CC(=O)O)NC(=O)[C@H](CO)NC(=O)[C@@H](NC(=O)[C@H](Cc1ccccc1)NC(=O)[C@@H](NC(=O)CNC(=O)[C@H](CCCNC(C)=O)NC(=O)[C@H](CO)NC(=O)[C@@H](N)Cc1c[nH]cn1)[C@@H](C)O)[C@@H](C)O)[C@@H](C)O)C(C)C)C(=O)N[C@@H](CC(=O)O)C(=O)N[C@@H](CCC(=O)O)C(=O)O [SEQ ID NO: 67] | 
19 | CCCC[C@H](NC(=O)[C@H](CC(C)C)NC(=O)[C@H](Cc1c[nH]c2ccccc12)NC(=O)[C@H](C)NC(=O)[C@@H](NC(=O)[C@H](Cc1ccccc1)NC(=O)[C@H](CCC(=O)O)NC(=O)[C@H](C)NC(=O)[C@H](C)NC(=O)[C@H](CCCNC(=N)N)NC(=O)[C@H](CCCNC(=N)N)NC(=O)[C@@H](NC(=O)[C@H](CC(=O)O)NC(=O)[C@H](CC(C)C)NC(=O)[C@H](Cc1ccc(O)cc1)NC(=O)[C@H](CCCCN)NC(=O)[C@H](CO)NC(=O)[C@H](Cc1ccc(O)cc1)NC(=O)[C@H](CC(=O)O)NC(=O)[C@H](CO)NC(=O)[C@@H](NC(=O)[C@H](Cc1ccccc1)NC(=O)[C@@H](NC(=O)CNC(=O)[C@H](CCNC(C)=O)NC(=O)[C@H](CO)NC(=O)[C@@H](N)Cc1c[nH]cn1)[C@@H](C)O)[C@@H](C)O)[C@@H](C)O)C(C)C)C(=O)N[C@@H](CC(=O)O)C(=O)N[C@@H](CCC(=O)O)C(=O)O [SEQ ID NO: 63] | 
7 | CCCC[C@H](NC(=O)[C@H](CC(C)C)NC(=O)[C@H](Cc1c[nH]c2ccccc12)NC(=O)[C@H](C)NC(=O)[C@@H](NC(=O)[C@H](Cc1ccccc1)NC(=O)[C@H](CCC(=O)O)NC(=O)[C@H](C)NC(=O)[C@H](C)NC(=O)[C@H](CCCNC(=N)N)NC(=O)[C@H](CCCNC(=N)N)NC(=O)[C@@H](NC(=O)[C@H](CC(=O)O)NC(=O)[C@H](CC(C)C)NC(=O)[C@H](Cc1ccc(O)cc1)NC(=O)[C@H](CCCCN)NC(=O)[C@H](CO)NC(=O)[C@H](Cc1ccc(O)cc1)NC(=O)[C@H](CC(=O)O)NC(=O)[C@H](CO)NC(=O)[C@@H](NC(=O)[C@H](Cc1ccccc1)NC(=O)[C@@H](NC(=O)CNC(=O)[C@H](CC[S+](C)[O-])NC(=O)[C@H](CO)NC(=O)[C@@H](N)Cc1c[nH]cn1)[C@@H](C)O)[C@@H](C)O)[C@@H](C)O)C(C)C)C(=O)N[C@@H](CC(=O)O)C(=O)N[C@@H](CCC(=O)O)C(=O)O (some centres unmarked) [SEQ ID NO: 66] | 
